The values below come from patent US4716222A, “Substrates for hydrolases” (Hoechst Aktiengesellschaft, priority 1984, dated 1987).

The test system of one assay is leukocyte esterase. The assay can be described thus: Determination of leukocyte esterase with test strips. It counts as biochemical. The conditions noted are these: test strips immersed in leukocyte suspensions. The protocol:
Indicator paper No. 218 supplied by Macherey-Nage, Dueren, Federal Republic of Germany, was impregnated successively with the following solutions and was dried:
(a) aqueous boric acid buffer 0.25 mol/l, pH 8
(b) tosylalanylresorufin 0.25 g dissolved in 1 l of ethyl acetate.
The drying temperature selected for solution (a) was about 80° C. and that for (b) was about 120° C. The samples used were suspensions containing various concentrations of leukocytes, into which the test strips were briefly immersed. After about 1 minute a red-violet color developed, the intensity of which depended on the concentration of leukocytes. The detection sensitivity of this test system is about 1000 leukocytes per microliter.

Assay [1] can be described thus: Test paper moistened with a blood plasma solution. The conditions noted are these: paper impregnated with ethanol solution containing 0.01% substrate. An excerpt: The crude product was purified on a chromatography column (stationary phase: silica gel; mobile phase: CHCl3 +glacial acetic acid 19:1).
Another assay relates to β-glucosidase. The assay can be described thus: Specificity check with purified β-glucosidase. The class given is biochemical.
A further assay relates to α-glucosidase. The assay is described as follows: Kinetic determination of α-glucosidase activity in human urine. The class given is biochemical. An excerpt:
The activity of α-glucosidase in human urine can be determined very sensitively in a kinetic test with the new substrate 2H-7-0-(α-D-glucopyranosyl)-4-methyl-8-nitrobenzopyran-2-one (compound S1, see Example 1). Since the pH optimum of α-glucosidase is 4 to 6, the activity cannot be measured kinetically with the hitherto customary substrate p-nitrophenyl α-glucopyranoside because the released nitrophenol has only a very low extinction at 405 nm (Table 1).
In contrast, with compound S1 as substrate an absorbance difference in normal human urine of 0,040 per minute could be measured in a kinetic test, and thus the automation of this determination is possible.
A further possibility for the kinetic determination of α-glucosidase activity is the use of 3-H-7-O-(α-glucopyranosyl)phenoxazin-3-one (resorufin-α-D-glucopyranoside). […] At 37°, using 400 μl reagent and 200 μl urine an absorbance difference of 0.136 α per minute was found.

Assay [2] has as its system β-galactosidase. The assay can be described thus: Cleavage of the substrate by β-galactosidase (specificity). The class given is biochemical. How it is done: (§1) The activity of the β-galactosidase in human urine could be kinetically determined by the use of 3-O-([…])-3-hydroxy-2-nitropyridine. For this purpose 0.2 ml of 10-fold concentrated normal urine was added to 1 ml of buffered substrate solution and the extinction change recorded at 405 nm and 22° C. Under these conditions an extinction difference of 1.2 mE/min was measured.
(§2) The β-galactosidase activity could be kinetically measured in human urine by the use of 2H-7-O-(β-D-galactopyranosyl)-4-methyl-8-nitrobenzopyran-2-one (compound S15). An extinction change of 4 mE/min was recorded at 23° C. and 366 nm with the use of 200 μl of buffered substrate solution and 200 μl of urine of normal concentration. […] Also, β-galactosidase in human urine could be kinetically determined by using resorufin-β-D-galactopyranoside (compound S6). […] The activity of β-glucuronidase in human urine could be kinetically measured with 2H-7-O-(β-D-glucuronopyranosyl)-4-methyl-8-nitrobenzopyran-2-one (compound S9).

Assay [3] concerns the target T1, β-galactosidase (Homo sapiens, UniProt P06280).
T1 construct: from tissue; host or cells: human urine, 10-fold concentrated
T1 sequence (P06280 32-429): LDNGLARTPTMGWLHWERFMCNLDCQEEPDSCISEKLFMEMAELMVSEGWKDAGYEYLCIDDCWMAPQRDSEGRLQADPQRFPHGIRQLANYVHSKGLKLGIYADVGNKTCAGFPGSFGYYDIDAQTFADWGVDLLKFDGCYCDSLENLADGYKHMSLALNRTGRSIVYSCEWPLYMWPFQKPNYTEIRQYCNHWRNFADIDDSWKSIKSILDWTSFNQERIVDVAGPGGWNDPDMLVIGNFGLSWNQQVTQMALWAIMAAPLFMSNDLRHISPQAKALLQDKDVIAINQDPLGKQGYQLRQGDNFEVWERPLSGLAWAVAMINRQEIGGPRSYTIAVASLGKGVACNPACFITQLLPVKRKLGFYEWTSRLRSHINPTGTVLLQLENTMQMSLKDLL
The assay is described as follows: Kinetic determination of galactosidase in human urine with the α-D-galactopyranosyl nitropyridine substrate. The class given is biochemical. The conditions noted are these: 0.2 ml 10-fold concentrated normal urine + 1 ml buffered substrate solution, 405 nm, 22° C. The protocol: as §1

For the next assay, the target named is T2, β-glucuronidase (Homo sapiens, UniProt P08236).
T2 construct: from tissue; host or cells: human urine concentrate
T2 sequence (P08236 23-651): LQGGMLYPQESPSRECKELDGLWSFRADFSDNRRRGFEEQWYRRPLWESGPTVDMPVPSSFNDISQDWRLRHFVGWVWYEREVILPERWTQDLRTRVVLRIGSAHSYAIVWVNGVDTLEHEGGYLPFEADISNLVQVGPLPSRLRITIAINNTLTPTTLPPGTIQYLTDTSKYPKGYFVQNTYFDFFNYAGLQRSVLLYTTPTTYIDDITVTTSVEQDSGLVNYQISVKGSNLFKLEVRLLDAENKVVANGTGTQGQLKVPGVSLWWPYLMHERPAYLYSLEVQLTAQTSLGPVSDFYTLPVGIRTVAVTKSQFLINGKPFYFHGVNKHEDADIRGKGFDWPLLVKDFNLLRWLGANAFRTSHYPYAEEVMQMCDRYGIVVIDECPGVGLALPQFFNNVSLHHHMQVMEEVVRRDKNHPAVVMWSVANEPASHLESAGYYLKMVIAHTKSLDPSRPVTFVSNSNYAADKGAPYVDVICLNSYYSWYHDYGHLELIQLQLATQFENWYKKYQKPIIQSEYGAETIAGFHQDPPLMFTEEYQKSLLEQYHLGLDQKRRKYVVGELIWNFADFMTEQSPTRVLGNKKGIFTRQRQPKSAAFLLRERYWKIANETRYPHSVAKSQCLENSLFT
The assay is described as follows: Determination of β-glucuronidase in human urine. The note with it: human urine concentrate, pH 5, 30° C., 366 nm. The class given is biochemical. How it is done: as §2
In this case, 0.1 ml of urine concentrate was added to 0.6 ml of buffered substrate solution and the activity recorded at pH 5, 30° C. and 366 nm. Under these conditions an absorbance difference of 0,014 A/min was measured. Consequently the determination is many times more sensitive than with the customary p-nitrophenyl substrate (Table 4).

Compound `CC(C)C[C@H](NC(=O)OC(C)(C)C)C(=O)Oc1ccc2nc3ccc(=O)cc-3oc2c1` [Boc-Leu-resorufin] yielded a detection sensitivity in the assay with leukocyte esterase of 2000 leukocytes per microliter.

Turning to `Cc1ccc(S(=O)(=O)NCC(=O)N2CCC[C@H]2C(=O)N[C@@H](CCCNC(=N)N)C(=O)Oc2ccc3c(c2)oc2cc(=O)ccc-2[n+]3[O-])cc1` [Tos-Gly-Pro-Arg-resazurin], the “coloration of test paper” value in assay [1] is given as “immediate blue-violet coloration”.

Take `Cc1cc(=O)oc2c([N+](=O)[O-])c(O[C@H]3O[C@H](CO)[C@@H](O)[C@H](O)[C@H]3O)ccc12` [compound S1, 2H-7-O-(α-D-Glucopyranosyl)-4-methyl-8-nitrobenzopyran-2-one]: in the assay on β-glucosidase, the “cleavage by β-glucosidase / specificity for α-glucosidase” value is given as “not cleaved by β-glucosidase”. In addition, the “absorbance difference per minute” value with α-glucosidase (normal human urine, kinetic test) is 0,040 per minute.

Turning to `O=[N+]([O-])c1ncccc1O[C@H]1O[C@H](CO)[C@H](O)[C@H](O)[C@H]1O` [compound S3, 3-O-(α-D-Galactopyranosyl)-2-nitropyridine], in the assay with β-galactosidase [2], the “cleavage by β-galactosidase” value is recorded as “not cleaved by β-galactosidase”. Moreover, on β-galactosidase [3], the extinction difference is on record as 1.2 mE/min.

In the case of `Cc1cc(=O)oc2c([N+](=O)[O-])c(O[C@@H]3O[C@H](C(=O)O)[C@@H](O)[C@H](O)[C@H]3O)ccc12` [compound S9, 2H-7-O-(1-β-D-Glucuronopyranosyl)-4-methyl-8-nitrobenzopyran-2-one], the “delta A/min” value on β-glucuronidase was 0,014 A/min.

With `O=c1ccc2nc3ccc(O[C@H]4O[C@H](CO)[C@@H](O)[C@H](O)[C@H]4O)cc3oc-2c1` [resorufin-α-D-glucopyranoside, 3-H-7-O-(α-glucopyranosyl)phenoxazin-3-one], in the assay on β-glucosidase, the “cleavage by β-glucosidase / specificity for α-glucosidase” value is “specific substrate for α-glucosidase”. In addition, the “absorbance difference per minute” value with α-glucosidase (37°, 400 μl reagent and 200 μl urine, 578 nm, pH 6) is 0.136 per minute.

`Cc1ccc(S(=O)(=O)N[C@@H](C)C(=O)Oc2ccc3nc4ccc(=O)cc-4oc3c2)cc1` [tosylalanylresorufin]: in the assay with leukocyte esterase, the detection sensitivity result was “about 1000 leukocytes per microliter”.
